According to US20130261130A1, “NEUROTRYPSIN INHIBITORS” (priority 2010, published 2013):

Molecular target: T1, human neurotrypsin (Homo sapiens, UniProt P56730)
T1 sequence (P56730 21-875): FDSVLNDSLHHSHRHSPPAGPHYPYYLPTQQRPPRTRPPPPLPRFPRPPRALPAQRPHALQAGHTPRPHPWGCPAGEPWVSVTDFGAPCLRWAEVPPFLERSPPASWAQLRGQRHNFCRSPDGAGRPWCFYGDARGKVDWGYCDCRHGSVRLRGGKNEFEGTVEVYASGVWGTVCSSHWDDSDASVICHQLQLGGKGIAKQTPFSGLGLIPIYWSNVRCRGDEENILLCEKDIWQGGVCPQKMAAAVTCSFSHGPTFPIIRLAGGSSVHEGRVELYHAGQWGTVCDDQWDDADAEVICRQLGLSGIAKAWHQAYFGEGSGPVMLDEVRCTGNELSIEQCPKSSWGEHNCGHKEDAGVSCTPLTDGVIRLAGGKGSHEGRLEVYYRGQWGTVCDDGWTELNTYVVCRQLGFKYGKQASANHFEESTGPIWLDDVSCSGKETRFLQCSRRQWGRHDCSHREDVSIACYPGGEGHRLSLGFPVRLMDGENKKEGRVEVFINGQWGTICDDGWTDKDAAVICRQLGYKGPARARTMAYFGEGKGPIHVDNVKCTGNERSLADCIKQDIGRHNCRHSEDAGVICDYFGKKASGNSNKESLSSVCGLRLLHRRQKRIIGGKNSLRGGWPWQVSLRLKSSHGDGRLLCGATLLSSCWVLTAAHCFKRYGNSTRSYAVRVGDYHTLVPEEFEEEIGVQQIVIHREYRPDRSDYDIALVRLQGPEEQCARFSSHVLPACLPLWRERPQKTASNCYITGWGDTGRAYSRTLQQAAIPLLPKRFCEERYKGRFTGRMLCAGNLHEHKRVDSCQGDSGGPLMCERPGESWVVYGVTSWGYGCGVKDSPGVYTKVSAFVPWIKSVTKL
Assay: Determination of IC50 for human neurotrypsin
Assay type: biochemical
Conditions: human neurotrypsin; method of WO 2006/1103261; read-out: Neurotrypsin IC50
Experimental: Assessment of the potency of compounds of examples 1-311 in inhibiting the enzymatic activity of human neurotrypsin was performed according to the method described in patent application WO 2006/1103261

Row | SMILES | IC50
1 | O=C(Nc1ccc(CCc2ccccc2)cc1)c1ccc(C(=O)O)c(NC(=O)c2sc3ccccc3c2Cl)c1 [Example 63, 2-(3-Chlorobenzo[b]-thiophene-2-carboxamido)-4-(4-phenethylphenyl-carbamoyl)benzoic acid] | 130 µM
2 | O=C(Nc1ccc(Oc2ccccc2)cc1)c1ccc(C(=O)O)c(NC(=O)c2sc3ccccc3c2Cl)c1 [Example 64] | 23.3 µM
3 | O=C(Nc1cccc(Oc2ccccc2)c1)c1ccc(C(=O)O)c(NC(=O)c2sc3ccccc3c2Cl)c1 [Example 65] | 7.3 µM
4 | O=C(Nc1ccc(Cc2ccccc2)cc1)c1ccc(C(=O)O)c(NC(=O)c2sc3ccccc3c2Cl)c1 [Example 67] | 10.7 µM
5 | CC(C)(C)c1ccc(NC(=O)c2ccc(C(=O)O)c(NC(=O)c3sc4ccccc4c3Cl)c2)cc1 [Example 69] | 3.1 µM
6 | O=C(Nc1ccc(Oc2ccccc2)c(Cl)c1)c1ccc(C(=O)O)c(NC(=O)c2sc3ccccc3c2Cl)c1 [Example 73] | 4.4 µM
7 | O=C(O)CN(C(=O)c1ccc(C(=O)O)c(NC(=O)c2sc3ccccc3c2Cl)c1)c1ccc(Cl)cc1 [Example 74] | 26.1 µM
8 | CC(C)(C)c1cccc(NC(=O)c2ccc(C(=O)O)c(NC(=O)c3sc4ccccc4c3Cl)c2)c1 [Example 75] | 5.6 µM
9 | CC(C)(C)Oc1ccc(NC(=O)c2ccc(C(=O)O)c(NC(=O)c3sc4ccccc4c3Cl)c2)cc1 [Example 78] | 19.2 µM
10 | O=C(Nc1ccccc1O)c1ccc(C(=O)O)c(NC(=O)c2sc3ccccc3c2Cl)c1 [Example 82] | 17.8 µM
11 | O=C(Nc1ccc(Oc2cccnc2)cc1)c1ccc(C(=O)O)c(NC(=O)c2sc3ccccc3c2Cl)c1 [Example 84] | 4.8 µM
12 | O=C(Nc1ccc(Oc2cccnc2)c(Cl)c1)c1ccc(C(=O)O)c(NC(=O)c2sc3ccccc3c2Cl)c1 [Example 85] | 2.3 µM
13 | O=C(Nc1nc2ccc(Cl)cc2s1)c1ccc(C(=O)O)c(NC(=O)c2sc3ccccc3c2Cl)c1 [Example 87, 2-(3-Chlorobenzo[b]-thiophene-2-carboxamido)-4-(6-chlorobenzo[d]thiazol-2-yl-carbamoyl)benzoic acid] | 4.3 µM
14 | CN(C(=O)c1ccc(C(=O)O)c(NC(=O)c2sc3ccccc3c2Cl)c1)c1cc2ccccc2s1 [Example 88] | 24.8 µM
15 | O=C(NCc1ccc(Cl)s1)c1ccc(C(=O)O)c(NC(=O)c2sc3ccccc3c2Cl)c1 [Example 90] | 4.9 µM
16 | O=C(NCc1ccc(-c2ccc(Cl)cc2)s1)c1ccc(C(=O)O)c(NC(=O)c2sc3ccccc3c2Cl)c1 [Example 91, 2-(3-Chlorobenzo[b]-thiophene-2-carboxamido)-4-((5-(4-chlorophenyl)thiophen-2-ylmethyl)carbamoyl)-benzoic acid] | 10 µM
17 | O=C(O)c1ccc(C(=O)N2CCCc3ccccc32)cc1NC(=O)c1sc2ccccc2c1Cl [Example 97] | 10.3 µM
18 | O=C(O)c1ccc(C(=O)N2CCC(O)(c3ccc(Cl)cc3)CC2)cc1NC(=O)c1sc2ccccc2c1Cl [Example 99] | 6.9 µM
19 | O=C(O)c1ccc(C(=O)N2CCC(Oc3ccccc3)C2)cc1NC(=O)c1sc2ccccc2c1Cl (stereo not drawn) [Example 101] | 9 µM
20 | O=C(O)c1ccc(C(=O)N2CCC(c3ccccc3)C2)cc1NC(=O)c1sc2ccccc2c1Cl (stereo not drawn) [Example 103] | 4.1 µM
21 | O=C(O)c1cc(C(=O)N2CCC(c3ccc(Cl)cc3)C2)ccc1NC(=O)c1sc2ccccc2c1Cl (stereo not drawn) [Example 108] | 3.9 µM
22 | CC(NC(=O)c1ccc(NC(=O)c2ccc(-c3ccc(Cl)cc3)s2)c(C(=O)O)c1)c1ccc(Cl)cc1 (stereo not drawn) [Example 110] | 3.4 µM
23 | O=C(NC1CCCc2ccccc21)c1ccc(NC(=O)c2ccc(-c3ccc(Cl)cc3)s2)c(C(=O)O)c1 (stereo not drawn) [Example 112] | 5 µM
24 | O=C(O)c1cc(C(=O)N2CCC(c3ccc(F)cc3)CC2)ccc1NC(=O)c1sc2ccccc2c1Cl [Example 113] | 2.7 µM
25 | O=C(O)c1cc(C(=O)N2CCC(Cc3ccc(F)cc3)CC2)ccc1NC(=O)c1sc2ccccc2c1Cl [Example 114] | 3 µM
26 | O=C(O)c1cc(C(=O)N2CCC(c3ccc(Cl)cc3)CC2)ccc1NC(=O)c1sc2ccccc2c1Cl [Example 115] | 3.1 µM

Further lines, results first:

Row | IC50 | SMILES
27 | 2.4 µM | COc1ccc(C2CCN(C(=O)c3ccc(NC(=O)c4sc5ccccc5c4Cl)c(C(=O)O)c3)CC2)cc1 [Example 116]
28 | 2.9 µM | COc1ccc(CC2CCN(C(=O)c3ccc(NC(=O)c4sc5ccccc5c4Cl)c(C(=O)O)c3)CC2)cc1 [Example 117]
29 | 2.2 µM | O=C(O)c1cc(C(=O)N2CCC(Cc3ccc(Cl)cc3)CC2)ccc1NC(=O)c1sc2ccccc2c1Cl [Example 118, 2-(3-Chlorobenzo[b]-thiophene-2-carboxamido)-5-(4-(4-chlorobenzyl)piperidine-1-carbonyl)benzoic acid]
30 | 4.1 µM | O=C(Nc1ccc(Cl)cc1)c1ccc(NC(=O)c2ccc(-c3cccs3)cc2O)c(C(=O)O)c1 [Example 120, 5-(4-Chlorophenyl-carbamoyl)-2-(2-hydroxy-4-(thiophen-2-yl)benzamido)-benzoic acid]
31 | 4.9 µM | Cc1cccc(C)c1C1CCN(C(=O)c2ccc(NC(=O)c3sc4ccccc4c3Cl)c(C(=O)O)c2)CC1 [Example 121]
32 | 9.4 µM | O=C(O)c1cc(C(=O)N2CCC(c3ccc(O)cc3)CC2)ccc1NC(=O)c1sc2ccccc2c1Cl [Example 122]
33 | 3.5 µM | O=C(NCCc1ccccc1)c1ccc(NC(=O)c2ccc(-c3nc4cc(Cl)c(Cl)cc4[nH]3)cc2)c(C(=O)O)c1 [Example 123]
34 | 3.9 µM | O=C(Nc1ccc(C(=O)N2CCCCC2)cc1C(=O)O)c1ccc(-c2nc3cc(Cl)c(Cl)cc3[nH]2)cc1 [Example 124]
35 | 3.5 µM | O=C(Nc1ccc(C(=O)NC2CCCCC2)cc1C(=O)O)c1ccc(-c2nc3cc(Cl)c(Cl)cc3[nH]2)cc1 [Example 125]
36 | 1.2 µM | O=C(NCC1CCCCC1)c1ccc(NC(=O)c2ccc(-c3nc4cc(Cl)c(Cl)cc4[nH]3)cc2)c(C(=O)O)c1 [Example 126]
37 | 1 µM | CCCCc1ccc(NC(=O)c2ccc(NC(=O)c3ccc(-c4nc5cc(Cl)c(Cl)cc5[nH]4)cc3)c(C(=O)O)c2)cc1 [Example 129]
38 | 7.6 µM | CC(C)CNC(=O)c1ccc(NC(=O)c2ccc(-c3nc4cc(Cl)c(Cl)cc4[nH]3)cc2)c(C(=O)O)c1 [Example 130]
39 | 0.7 µM | CC(C)CN(CC(C)C)C(=O)c1ccc(NC(=O)c2ccc(-c3nc4cc(Cl)c(Cl)cc4[nH]3)cc2)c(C(=O)O)c1 [Example 131]
40 | 5.3 µM | O=C(NCc1ccccc1)c1ccc(NC(=O)c2ccc(-c3nc4cc(Cl)c(Cl)cc4[nH]3)cc2)c(C(=O)O)c1 [Example 132]
41 | 1.9 µM | CC(NC(=O)c1ccc(NC(=O)c2ccc(-c3nc4cc(Cl)c(Cl)cc4[nH]3)cc2)c(C(=O)O)c1)c1ccc(Cl)cc1 (stereo not drawn) [Example 133]
42 | 1.9 µM | O=C(Nc1ccc(Cl)cc1)c1ccc(NC(=O)c2[nH]c3ccc(Cl)cc3c2-c2ccccc2)c(C(=O)O)c1 [Example 134]
43 | 0.9 µM | Cn1c(-c2ccc(C(=O)Nc3ccc(C(=O)Nc4ccc(Cl)cc4)cc3C(=O)O)cc2)nc2cc(Cl)c(Cl)cc21 [Example 135]
44 | 2.4 µM | CCCCCCCNC(=O)c1ccc(NC(=O)c2ccc(-c3nc4cc(Cl)c(Cl)cc4[nH]3)cc2)c(C(=O)O)c1 [Example 137]
45 | 6.6 µM | O=C(Nc1ccccc1)c1ccc(NC(=O)c2ccc(-c3nc4cc(Cl)c(Cl)cc4[nH]3)cc2)c(C(=O)O)c1 [Example 138]
46 | 7.5 µM | O=C(Nc1ccccc1F)c1ccc(NC(=O)c2[nH]c3ccc(Cl)cc3c2-c2ccccc2)c(C(=O)O)c1 [Example 139]
47 | 0.9 µM | O=C(Nc1ccc(Cl)cc1F)c1ccc(NC(=O)c2[nH]c3ccc(Cl)cc3c2-c2ccccc2)c(C(=O)O)c1 [Example 140]
48 | 1.9 µM | O=C(Nc1ccc(C(=O)N2CCC(Cc3ccc(F)cc3)CC2)cc1C(=O)O)c1ccc(-c2nc3cc(Cl)c(Cl)cc3[nH]2)cc1 [Example 141, 2-(4-(5,6-Dichloro-1H-benzo[d]imidazol-2-yl)benzamido)-5-(4-(4-fluorobenzyl)piperidine-1-carbonyl)benzoic acid]
49 | 2.2 µM | COc1ccc2c(Cl)c(C(=O)Nc3cc(C(=O)Nc4ccc(Cl)cc4)ccc3C(=O)O)sc2c1 [Example 142, 2-(3-Chloro-6-methoxy-benzo[b]thiophene-2-carbox)-4-(4-chlorophenylcarbamoyl)-benzoic acid]
50 | 3.9 µM | O=C(Nc1ccc(Cl)cc1)c1ccc(C(=O)O)c(NC(=O)c2cc(Br)cc(Br)c2O)c1 [Example 143, 4-(4-Chlorophenyl-carbamoyl)-2-(3,5-dibromo-2-hydroxybenzamido)benzoic acid]
51 | 22.1 µM | O=C(Nc1ccc(Cl)cc1)c1ccc(C(=O)O)c(NC(=O)c2ccc(-c3ccccn3)s2)c1 [Example 144, 4-(4-Chlorophenyl-carbamoyl)-2-(5-(pyrid-2-yl)-thiophene-2-carboxamido)-benzoic acid]
